Reference: paper PMC8318206 (ACS catalysis, 2020)
Values joined by “and” are separate entries in the source; they are usually repeats but may differ in a detail not shown here. Equal values may be shown once. “Also recorded” adds a separate entry of the source. Read-outs that look alike come from different tables or passages of the source.

Experiments:
P450cam [1] = target: T1, P450cam (Pseudomonas putida, UniProt P00183); experiment: Steady-state substrate binding titrations; settings: for Reversal of the high-spin spectral change at high ligand concentration: camphor up to 2 mM
P450cam [2] = target: T1, P450cam; experiment: Stopped-flow ligand binding kinetics; settings: for Dominant binding mechanism: from dependence of eigenvalues on ligand and P450cam concentration; for Binding rate measurable by stopped-flow (ΔA390-A420): dead time 2 ms
P450cam [3] = target: T1, P450cam; experiment: Catalytic activity: NADH oxidation with Pdx and PdR; format: biochemical; settings: for Rate/Kd (specificity constant): NADH oxidation rate divided by Kd
Solubility in H2O = format: physicochemical; settings: water
P450cam [4] = target: T1, P450cam; settings: reported previously; cited from earlier work
P450cam [5] = target: T1, P450cam; settings: cited from earlier work
P450cam [6] = target: T1, P450cam; experiment: Estimation of koff for the P450cam·camphor complex by metyrapone trapping; format: binding
P450tcu = settings: 5-exo hydroxylation; cited from earlier work
P450cam·Pdx complex = settings: ref Hollingsworth et al., 46; cited from earlier work
[7] = 20 mM potassium MOPS (pH 7.4), 200 mM KCl
[8] = eigenvalues vs camphor concentration
[9] = fit to λ = kf + kr·S/(Kd + S), induced fit model

O=C1C2CC3CC(C2)CC1C3 [2-adamantanone]
Kd (P450cam [1]): 2.7 µM | Exponential of binding (P450cam [2]; 2 μM 2-adamantanone and 1 μM P450cam): 72 s⁻¹ | Exponential of binding (P450cam [2]; 2 μM 2-adamantanone and 10 μM P450cam): 82 s⁻¹ | kobs of binding (P450cam [2]; 2 μM P450cam and 4 μM 2-adamantanone): 78 ± 2 s⁻¹ | Dominant binding mechanism (P450cam [2]): conformational selection | % relative to camphor (Rate/Kd) (P450cam [3]): 19% | Rate/Kd (specificity constant) (P450cam [3]): 1.3e+06 M⁻¹ s⁻¹ | solubility (Solubility in H2O): ≥ 2000 µM | Kd (P450cam [4]): 34 µM and 45 µM | Oxidation rate (P450cam [5]; ref White et al., 54): ~ 1 s^−1 | Oxidation rate (P450cam [5]; ref White et al., 54, listed as 2-Adamantone): 1 s⁻¹ | Specificity constant (rate/Kd) (P450cam [5]; reported by others, ref 54): 240000 M⁻¹ s⁻¹

CC1(C)CC(=O)CC(C)(C)C1 [3,3,5,5-tetramethylcyclohexanone]
Kd (P450cam [1]): 5 µM | Reversal of the high-spin spectral change at high ligand concentration (P450cam [1]; [7]): did reverse the spin state change at higher concentrations | Binding rate measurable by stopped-flow (ΔA390-A420) (P450cam [2]): changes could not be observed | % relative to camphor (Rate/Kd) (P450cam [3]): 0.6% | Rate/Kd (specificity constant) (P450cam [3]): 40000 M⁻¹ s⁻¹ | solubility (Solubility in H2O): ≥ 2000 µM | Kd (P450cam [4]): 3.5 µM

CC(C)(C(=O)c1cccnc1)c1cccnc1 [metyrapone]
First-order rate of binding to ligand-free P450cam (k2) (P450cam [6]; 2 mM metyrapone (final)): 18.9 s⁻¹

O=C1CC2CC[C@H]1C2 [norcamphor]
Kd (P450cam [1]): 250 µM | Binding rate measurable by stopped-flow (ΔA390-A420) (P450cam [2]): changes could not be observed | Rate/Kd (specificity constant) (P450cam [3]): 70000 M⁻¹ s⁻¹ | solubility (Solubility in H2O): ≥ 50000 µM | Kd (P450cam [4]): 350 µM | NADH coupling (P450cam [5]): 15%

(+)-α-pinene
Kd (P450cam [1]; 20 mM potassium MOPS (pH 7.4), 200 mM KCl, absence of Pdx, 23 °C): 3.4 µM | kobs of binding (P450cam [2]; 2 μM P450cam and 30 μM (+)-α-pinene): 81 ± 3 s⁻¹ | Dominant binding mechanism (P450cam [2]): conformational selection | Kd (P450cam [4]): 1.1 µM | Specificity constant (rate/Kd) (P450cam [5]; based on NADH oxidation): 1.3e+06 M⁻¹ s⁻¹ | Specificity constant (rate/Kd) (P450cam [5]; based on product formation): 300000 M⁻¹ s⁻¹ | NADH coupling (P450cam [5]): 23% | Oxidation rate (P450cam [5]; ref Bell et al., 37): 0.3 s⁻¹

d-(+)-camphor
Reversal of the high-spin spectral change at high ligand concentration (P450cam [1]; [7]): no reversal of the high-spin spectral change was observed; also recorded: did not show any evidence for reversal | Eigenvalue λ of binding (P450cam [2]; 6 μM P450cam mixed with 2 μM camphor): 69 ± 2 s⁻¹ | Intercept of linear regression of eigenvalues (koff, 2-state system) (P450cam [2]; [8]): 35 ± 4 s⁻¹ | Slope of linear regression of eigenvalues (second-order kon, 2-state system) (P450cam [2]; [8]): 2.4 (± 0.3) × 10^6 M^−1 s^−1 and 2.4 (± 0.3) M^−1 s^−1 | kf (kforward), forward rate constant following camphor binding (P450cam [2]; [9]): 112 s⁻¹ and 112 ± 49 s⁻¹ | kr (kreverse), reverse rate constant (P450cam [2]; [9]): 28 s⁻¹ and 28 ± 7 s⁻¹ | Dominant binding mechanism (P450cam [2]): induced fit mechanism | koff (k-1) of the P450cam·camphor complex (P450cam [6]; 2 μM P450cam, 10 μM camphor mixed with 2 mM metyrapone, KinTek Explorer fit): 15 s⁻¹ | kon in the minimal kinetic model (P450cam [6]; fit with koff = 15 s^−1 and Kd = […] μM): 1.5e+07 M⁻¹ s⁻¹ | % relative to camphor (Rate/Kd) (P450cam [3]): 100% | Rate/Kd (specificity constant) (P450cam [3]): 7e+06 M⁻¹ s⁻¹ | kcat (P450cam [5]; Km based on O2 as co-substrate): 55 to 66 s⁻¹ | Rate of 5-exo hydroxylation (P450cam [5]): > 10 s⁻¹ | Specificity constant (rate/Kd) (P450cam [5]; reported by others, ref 54): 340000 M⁻¹ s⁻¹ | Specificity constant (rate/Kd) (P450cam [5]; reported by others, ref 57): 1.6e+07 M⁻¹ s⁻¹ | Rate on the basis of NADH oxidation (P450cam [5]; typically reported): 7 to 14 s⁻¹ | kcat (P450tcu): ~ 10 s^−1 | Increase of the Kd of a P450cam·Pdx complex in the presence of camphor (P450cam·Pdx complex): 2 fold
